# Patent publication US20060057628A1, “Method for prognosticating the progress of breast cancer and compounds useful for prevention or treatment thereof” (priority 2003, published 2006)
# How the values were obtained:
# 17HSD type 1 = molecular target: T1, 17HSD type 1 (Homo sapiens, UniProt P14061); assay: 17HSD type 1 inhibition in MCF-7 cells stably expressing 17HSD type 1 (HPLC detection of tritium labeled estrone conversion); assay type: cell-based; design: expressed in transfected cells; host or cells: MCF-7 cells stably expressing 17HSD type 1; details: MCF-7 cells expressing 17HSD type 1, substrate estrone 20 nM
# T1 sequence (P14061 1-328): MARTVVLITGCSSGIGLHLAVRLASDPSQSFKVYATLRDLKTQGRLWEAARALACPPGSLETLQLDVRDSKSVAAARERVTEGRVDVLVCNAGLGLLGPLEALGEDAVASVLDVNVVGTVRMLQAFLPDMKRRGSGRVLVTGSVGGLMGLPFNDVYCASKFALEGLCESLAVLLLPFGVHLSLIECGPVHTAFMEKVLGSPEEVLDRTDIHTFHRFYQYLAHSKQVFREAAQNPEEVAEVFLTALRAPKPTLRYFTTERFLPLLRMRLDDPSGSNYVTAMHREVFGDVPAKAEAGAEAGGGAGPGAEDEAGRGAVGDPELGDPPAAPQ
# Text: (§1) The tested compounds (about 1000 selected different compounds) were screened in respect of 17HSD enzyme activities according to the following method:
# (§2) The compounds were screened in respect of 17HSD enzyme activities in vitro on two established MCF-7 cell lines, each stably expressing one 17HSD isoenzyme, either 17HSD type 1 or 17HSD type 2, but not the other one. The interconversion of substrate by each isoenzyme and the HSD-inhibiting activity of chemical compounds in these cell lines was detected by HPLC system (Miettinen et al., Int J Cancer (1996) 68, 600-604).
# (§3) Varying amounts of the test compounds were incubated in the growth medium of the 17HSD expressing cells together with tritium labeled substrate (estrone for 17HSD type 1 enzyme; 20 nM). The medium samples were removed after exact incubation time and the reaction was stopped by deepfreezing. The samples were analyzed by HPLC-coupled flow scintillation analysis. The 17HSD-inhibiting activity of the test compounds was compared to known reference compound apigenin and to a negative control.
# 17HSD type-2 enzyme = molecular target: T2, 17HSD type-2 enzyme (Homo sapiens, UniProt P37059); assay: 17HSD type 2 inhibition in MCF-7 cells stably expressing 17HSD type 2 (HPLC detection); assay type: cell-based; details: MCF-7 cells expressing 17HSD type 2; concentration not given
# T2 construct: expressed in transfected cells; host or cells: MCF-7 cells stably expressing 17HSD type 2
# T2 sequence (P37059 1-387): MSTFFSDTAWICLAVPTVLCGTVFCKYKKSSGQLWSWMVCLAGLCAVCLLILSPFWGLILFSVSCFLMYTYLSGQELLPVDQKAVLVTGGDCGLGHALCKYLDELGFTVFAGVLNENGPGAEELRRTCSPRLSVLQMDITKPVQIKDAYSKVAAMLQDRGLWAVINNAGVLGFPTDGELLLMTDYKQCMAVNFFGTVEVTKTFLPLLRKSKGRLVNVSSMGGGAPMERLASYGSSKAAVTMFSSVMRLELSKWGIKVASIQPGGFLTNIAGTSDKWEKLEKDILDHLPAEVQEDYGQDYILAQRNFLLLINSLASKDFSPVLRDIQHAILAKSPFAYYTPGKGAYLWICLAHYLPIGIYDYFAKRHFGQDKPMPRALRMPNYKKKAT
# Text: as §1, §2, §3
"inhibition at 1 µM (17HSD type 1; MCF7, concentration 1 μM) [%]",inhibition of the 17HSD type-2 enzyme (17HSD type-2 enzyme),inhibition of the 17HSD type 1 enzyme (17HSD type 1; concentration 1 μM) [%],inhibition of the 17HSD type 1 enzyme (17HSD type 1; concentration 10 μM) [%],Structure (SMILES)
48,5%,,,O=c1cc(-c2ccc(O)cc2)oc2cc(O)cc(O)c12 [apigenin]
,did not show any inhibition effect,80,95,O=CC1=C(Sc2ccccc2)c2sc3nc4n(c(=O)c3c2CC1)CCCCC4 [Compound A]
